Laboratory results taken from a melting point compilation (Tetko et al.; mined from patent text by program, amines drawn as free bases though some values may be those of a salt).

| melting point [°C] | SMILES |
| --- | --- |
| 80 | CC(C)(C)OC(=O)N1CCC(CNC(=O)[C@@H]2CCCN2S(=O)(=O)c2ccc(Cl)c(CBr)c2Cl)CC1 |
| 224 to 228 | C=CCc1c(O)ccc2c1ccc(=O)n2CC=C(C)C |
| 240 | CC(C)NC(=O)N1CCc2[nH]cnc2C1c1ccccn1 (stereo not given) |
| 154 to 155 | Cc1nc(-c2ccccc2)nc(NCC(=O)N(C)c2ccccc2)c1Cl |
| 101 | CCC(=O)c1cc(C2(c3cccc(O)c3)N=C(N)N(C)C2=O)cn1CC (stereo not given) |
| 99 to 101 | N=C(Nc1cc(Cl)cc(NC(=O)/C=C/c2ccccc2Br)c1)c1ccccc1 |
| 44 | COC(=O)C(CC(C)([N+](=O)[O-])[N+](=O)[O-])C(=O)OC |
| 200 | O=C(N[C@H]1CC[C@H](CCN2CCN(c3nccc4c3OCC4)CC2)CC1)c1cnc(N2CCOCC2)cn1 |
| 247 to 248 | CC(=O)Nc1cccc(-c2c(C)c(NC(=O)CC(C)(C)C)c(C)c3c2OCC3c2ccc(C(C)C)cc2)c1 (stereo not given) |
| 264 to 267 | COc1cc2c(cc1Br)C(=CNc1ccc(CN3CCCCC3)cc1)C(=O)NC2=O |
| 91 | CCCCCCCOc1ccc(-c2ccc(OCC(C)CC)nn2)cc1 (stereo not given) |
| 203 to 205 | O=Cc1c[nH]c2c(F)cccc12 |
| 139 | Cc1ccc(C(=O)OCn2ncc(=O)[nH]c2=O)cc1 |
| 164 | COC(=O)c1cc(NC(=O)OC(C)(C)C)c(N)cc1C#Cc1ccccc1 |
| 153 to 155 | O=C(COc1ccccc1)NC1CNC1=O (stereo not given) |
| 148 | Cn1cc(C[C@H]2NC(=O)[C@@H](CCCN)NC2=O)c2ccccc21 |
| > 270 | O=C(O)c1ccc(C2CCNCC2)cc1 |
| 115 | C[C@H](NC(C#N)CCc1ccccc1)C(=O)O (stereo not given in full) |
| 105 to 106 | CN(C)c1ccc2sc(C=O)cc2c1 |
| 142 to 145 | [N-]=[N+]=NC1CCc2ccccc2NC1=O (stereo not given) |
| 91 to 93 | Cc1ccncc1NC(=O)OC(C)(C)C |
| 67 to 68 | CCCCCc1ccc(C2c3c(C)c(N)c(C)c(C)c3OC2(C)C)cc1 (stereo not given) |

| melting point [°C] | SMILES |
| --- | --- |
| 258 to 259 | O=C(Nc1ccccc1C(c1ccc(O)cc1)c1ccc(O)cc1)c1ccc([N+](=O)[O-])cc1 |
| 155 to 157 | CC(=O)NC[C@H]1CN(c2ccc(C3CCN(C(=O)CO)CC3)cc2)C(=O)O1 |
| 120 to 121 | CC(COc1c(-c2ccccc2)c(=O)oc2c(-c3ccccc3)cccc12)CN1CCOCC1 (stereo not given) |
| 163 to 165 | CCCN1CC(C)=CC2=C1N1CN(OC)C=C1N=N2 |
| 153 to 155 | CCN1C(=O)C(C)(C)C(=O)N(C)c2cc(CN(CCn3ccc4oc(C)cc4c3=O)Cc3ccc(C=O)cc3)ccc21 |
| 167 to 168 | CC(C)(C(=O)NCCn1ccc2ncnc(Nc3ccc(Oc4cccc(C(F)(F)F)c4)c(Cl)c3)c21)S(C)(=O)=O |
| 87 to 88 | OCc1cc(OCc2ccccc2)nn1-c1ccccc1 |
| 92 to 94 | CC(=O)c1ccc(-c2ccc(F)cc2F)c(F)c1 |
| 113 to 115 | O=C(O)CNC(=O)C(c1ccccc1)c1ccccc1 |
| 180 to 181 | CS(=O)(=O)c1ccc(-c2ccccc2-c2ccc(Cl)cc2)cc1 |
| 151 to 153 | CC1(O)CC(=O)OC(c2ccc(-c3ccccc3)cc2)C1 (stereo not given) |
| 203 | COc1ccc(C(C)=O)cc1C=CC(=O)O |
| 93 to 94 | CCCCCCCCCCCCCCCCCCCCC(COC(C)=O)(COC(C)=O)NC(C)=O |
| 90 | Nc1cc(Br)c(OC(F)(F)C(F)Cl)cc1[N+](=O)[O-] (stereo not given) |
| 171 to 172 | CC(C)c1cc(S(=O)(=O)c2c(Br)cc(CC(=O)O)cc2Br)ccc1O |
| 211 to 212 | O=C(NC1CCN(CC23CC(c4ccccc42)c2ccccc23)CC1)NC1CCCCO1 (stereo not given) |
| 158 to 160 | CCCc1nn(C)c2c(=O)n(CCCOc3ccc(OC(C)(C)C(=O)O)cc3)c(C)nc12 |
| 136 | Cc1cc2sccc2c(N)n1 |
| 129 to 130 | COC(=O)c1cc2ccc(OCc3ccccc3)cc2oc1=O |
| 133 to 136 | COC(=O)c1ccc(NN)cc1S(=O)(=O)NC(C)(C)C |
| 201 to 203 | O=C1CC(c2cccc(-n3ccnc3)c2)=Nc2ccc(C#Cc3ccccc3F)cc2N1 |
| 131 | CC(C)c1occc1S(=O)(=O)c1ccc(O)cc1 |

| melting point [°C] | SMILES |
| --- | --- |
| 73 to 75 | CC(=O)CCCCCCCc1ccc(O)c(O)c1 |
| 113 to 116 | Brc1ccc2noc(-c3ccccc3)c2c1 |
| 168 to 170 | COc1ccc2sc(=O)[nH]c2c1 |
| 137 to 143 | CSC(=C[N+](=O)[O-])S(C)=O (stereo not given) |
| 139 to 140 | COc1cc(C)c(C)cc1NC(=O)N1CCN(c2cc(-c3ccccc3)ccc2OC)CC1 |
| 200 to 201 | OCc1cn(C(c2ccccc2)(c2ccccc2)c2ccccc2)nn1 |
| 89 | N#Cc1cc(N)ccc1Oc1ccccc1 |
| 171 to 172 | O=C(NO)c1ccc(CNC(=O)c2[nH]c(-c3cccs3)cc2-c2ccc(O)cc2)cc1 |
| 101 to 105 | C=C(CC(C)C)C(=O)O |
| 122 to 123 | COCOc1ccc(CCCOc2nn(C)cc2CC(=O)O)c(Oc2ncc(C(F)(F)F)cc2Cl)c1 |
| 133 to 136 | CC(=O)Oc1ccc(N)cc1C(=O)O |
| 67.5 to 70 | COc1ccc(OC(Cc2ccc(OCCNC(=O)c3ccc(-c4ccccn4)cc3)cc2)C(=O)O)cc1 (stereo not given) |
| 244 to 249 | Cc1nc2c(-c3cccc(N4CCC(N5CCCC5)CC4)c3)cnn2c(N)c1-c1ccc(F)cc1 |
| 277 to 279 | Cc1ccc(-c2[nH]c(-c3c(C)cc(C)cc3C)nc2-c2ccncc2)cc1 |
| 173 to 174 | CC(=O)OC1CC2C3CCC4=CC(=O)CCC4(C)C3CCC2(C)C1N(C)C(=O)C(F)(F)F (stereo not given) |
| 212 to 213 | O=c1[nH]c2ccc(Cl)cc2s1 |
| 154 to 163 | NC(=O)c1ccc(F)c2c1CC(N(CCCc1c[nH]c3c(Cl)cccc13)C1CCC1)CO2 (stereo not given) |
| 157 to 159 | COc1cc(C(NC(=O)OC(C)(C)C)C(c2ccccc2)[N+](=O)[O-])ccc1Br (stereo not given) |
| 138 to 140 | CCCNC(=O)c1cnc2c(C)cccn2c1=O |
| 132 | C[C@H](C#Cc1ccc(Cc2ccc(Cl)cc2)s1)N(O)C(N)=O |
| 132 to 135 | CCOC(=O)c1ccc(NC)c(C(O)c2ccccc2)c1 (stereo not given) |

| SMILES | melting point [°C] |
| --- | --- |
| CCOn1nnnc1SC[PH](=O)O | 120 to 122 |
| CC(=O)N[C@H](COC(F)F)C(=O)NCc1ccc(F)cc1 | 163 |
| CN1CCN(c2c(F)c(F)c([N+](=O)[O-])c(NC3CC3)c2F)CC1 | 75 |
| C#CCN(C(C)=O)c1cccc(-c2ccc3nncn3n2)c1 | 195 to 198 |
| CC(=NOC(=O)N(C)C)C1=CCCN(C)C1 | 54 to 55 |
| CN1CCC(c2ccc(Cl)c(Cl)c2)C(CO)C1 (stereo not given) | 109 to 111 |
| N#Cc1cccc2c1COc1ccc(OCc3ccc4ccc(Cl)cc4n3)cc1C2SCCC(=O)O (stereo not given) | 193 to 195 |
| CNc1n[nH]c(=O)n1N | 214 |
| c1ccc2c(C3CCNCC3)n[nH]c2c1 | 213 to 215 |
| COCC(COC)(CN(C)CCP(C)(C)=S)SCc1ccccc1 | 74 |
